Reference: PubChem BioAssay (NCI)
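In this assay, cells in 96-well plates receive the compound at five concentrations for 48 hours. Endpoints are linearly interpolated between the surrounding concentrations. GI50 is the concentration that inhibits growth by half. The concentration for full growth arrest is given as TGI.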

How the values were obtained:
Assay in all cases: DTP human tumour cell line panel, 48 h
[1] = test system: SK-MEL-5 melanoma
[2] = test system: PC-3 prostate
[3] = test system: OVCAR-8 ovarian
[4] = test system: NCI-H23 lung
[5] = test system: NCI-H226 lung
[6] = test system: IGROV1 ovarian
[7] = test system: CCRF-CEM leukemia
[8] = test system: RXF 393 renal
[9] = test system: HCT-15 colon
[10] = test system: EKVX NSCLC

SMILES	GI50 [1] [µM]	TGI [1] [µM]	GI50 [2] [µM]	TGI [2] [µM]	GI50 [3] [µM]	TGI [3] [µM]	GI50 [4] [µM]	TGI [4] [µM]	GI50 [5] [µM]	TGI [5] [µM]	GI50 [6] [µM]	TGI [6] [µM]	GI50 [7] [µM]	TGI [7] [µM]	GI50 [8] [µM]	TGI [8] [µM]	GI50 [9] [µM]	TGI [9] [µM]	TGI [10] [µM]	GI50 [10] [µM]
COc1ccc(-c2nc(-c3ccccc3)c(-c3ccccc3)[nH]2)cc1OC1CCCC1	> 100	> 100	> 100	> 100	> 100	> 100	> 100	> 100	> 100	> 100	> 100	> 100	51.8	> 100	8.3	99.5	13.2	> 100		
COC(=O)/C(=N\NC(=O)C[N+](C)(C)C)C(C(=O)OC)C(=O)C(=O)Nc1ccccc1C(N)=O (stereo not given)		> 100						> 100		> 100		> 100		> 100		> 100		> 100	> 100	
COc1ccc(-c2nc(/C=N/Nc3cc(C)nc4ccc(Cl)cc34)c(C)o2)cc1	1.77	3.17	1.66	3.17	1.89	3.91	1.99	4.09	2.35	5.14	1.76	3.36			1.64	3.14	1.52	3.06	3.29	1.82
C1COCCN1.C1COCCN1.NC1CCCCC1N.[Cl-].[Pt+2] (stereo not given)	> 100	> 100			> 100	> 100	> 100	> 100	> 100	> 100	> 100	> 100	> 100	> 100	> 100	> 100			> 100	> 100
CN1c2ccccc2N(C(=O)c2ccc(Cl)cc2)C(CC(=O)O)c2cccn21 (stereo not given)		> 100				> 100		> 100		> 100		> 100		> 100		> 100		> 100	> 100	
Cc1oc2c(C)c3oc(=O)cc(C)c3cc2c1CN1C(=O)C2OCCOCCOCCOCCOCCO[C@H]2C1=O (stereo not given in full)		> 100				> 100		> 100		> 100		> 100		> 100		> 100		> 100	> 100	
CC(=O)C(=Cc1ccc(C=C(C(C)=O)C(C)=O)cc1)C(C)=O		3.36		5.17		14.6		4.59		7.8		4.18				3.51		3.44	8.76	
CCN(CC)CCOc1ccc(CCc2cc(OC)c(OC)c(OC)c2)cc1		29.7				> 100				> 100		> 100		> 100		93.2		> 100	> 100	
